Our source for the IC50 values is patent US8354414B2, “Substituted bicyclic pyrimidines” (Cephalon, Inc, priority 2006, dated 2013).

Molecules are shown by their SMILES. pIC50: −log10 of the molar value.

One experiment has as its target T1, His6-GSK-3β (Homo sapiens, UniProt P49841).
T1 construct: made in house; host or cells: Sf21 insect cells (baculovirus)
Put plainly: Inhibition of His6-GSK-3β kinase activity (ELISA-based format, time-resolved fluorescence readout). It is filed as biochemical. Particulars: class symbols; read-out: GSK3β IC50. The source says: Full-length GSK-3β was amplified from a sequence-verified I.M.A.G.E. EST acquired from Research Genetics (Invitrogen, Clone ID# CSODB003YJ02). The final sequence-verified cDNA contained the coding region for a NH2-terminal tag, which encoded for 6 histidines and then eight vector-encoded amino acids prior to the start of GSK3β, which contained by # 43-1342 of Genbank Accession # NM_002093, encoding amino acids #2-419. The predicted molecular weight of the tagged, 435 amino acid, full-length protein is 48.5 kDa. The major structural element of this protein is the kinase domain, which is from amino acids #56-340. Recombinant baculoviral DNA was prepared by transposition in E. coli (BAC-TO-BAC system: Invitrogen) and the virus generated and amplified in Sf21 insect cells. A suspension culture of Sf21 cells was infected at an MOI of 0.7 and cell density of 1.5×10^6 cells/mL in Excell 420 serum-free media (JRH BioScience) and harvested 65 h after infection. The 100,000×g supernatant solution was used for purification. Expression was confirmed by running samples on SDS-PAGE, followed by immunoblot analysis utilizing both a Penta-HIS antibody (Qiagen #34660) and a GSK-3α/GSK-3β antibody (Calbiochem #368662, data not shown). The His6-tagged protein was purified to in one step by Ni-NTA affinity chromatography.
Inhibitory effects of compounds on baculoviral GSK-3β kinase activity were evaluated using an ELISA-based format in a 384-well FluoroNunc Maxisorp plate (Cat # 460372) with a time-resolved fluorescence readout. Briefly, each plate was coated with 50 μl/well of 20 μg/ml substrate solution (recombinant GST-Rb) in Tris-buffered saline (TBS). The GSK-3β assay mixture (total volume=50 μl/well) consisting of 50 mM HEPES (pH 7.2), 20 μM ATP, 10 mM MgCl2, 5 mM EGTA, 25 mM β-glycerophosphate, 0.05% BSA, 2.5% DMSO, and various concentrations of test compound were then added to the assay plate. Enzyme (200 ng/ml His6-GSK-3β) was then added and the reaction was allowed to proceed at 37° C. for 30 minutes. Detection of the phosphorylated product was performed by adding 50 μl/well of phospho-Rb (Ser-780) antibody (Cell Signaling # 9307) diluted 1:10,000 in antibody dilution buffer (0.1% BSA in TBST). After 1-hour incubation at 37° C., 50 μl/well of Eu-N1 labelled anti-rabbit antibody (Wallac # AD0105; 1:50,000 in antibody dilution buffer) was added. Incubation at 37° C. then proceeded for 1 hour, followed by addition of 50 μl enhancement solution (Wallac #1244-105). The plate was gently agitated and after a few minutes, the fluorescence of the resulting solution was measured using a Multilabel Reader (Victor2 Model # 1420-018 or Envision Model 2100). Inhibition data were analyzed using ActivityBase and IC50 curves were generated using XLFit 3.0.5.
(ELISA stands for enzyme-linked immunosorbent assay.)

The target of the next experiment is T2, CDK5/GST-p25 (Homo sapiens, UniProt Q00535).
T2 construct: The final construct, encoding for full-length human CDK5; made in house; host or cells: Sf21 insect cells (baculovirus co-infection)
Put plainly: Inhibition of CDK5/GST-p25 kinase activity (ELISA with time-resolved fluorescence readout). Type of experiment: biochemical. Particulars: class symbols. As for the experimental part: Two recombinant baculoviral constructs were created, one encoding for human CDK5 and the other encoding for human p25 with an amino-terminal glutathione-S-transferase (GST) tag. PCR amplification of full-length CDK5 was performed utilizing human brain cDNA as a template and Pfu Turbo polymerase (Strategene). The PCR product from this reaction was subcloned into the baculoviral expression vector pFASTBAC1 (Gibco/BRL). The final construct, encoding for full-length human CDK5 (base pairs 25-903 of GenBank Accession #NM_004935), is 292 amino acids long with a predicted MW of 33.3 kDa.
For p25, the active truncated form of p35, amino acids 108-307 were PCR-amplified from human fetal brain cDNA (Clontech QUICK-Clone cDNA) using the Advantage 2 PCR system (Clontech). The PCR product was subcloned into the baculoviral transfer vector pFBGSTP (an engineered derivative of the baculoviral transfer vector pFASTBAC1). The final baculoviral construct encodes for base pairs 419-1021 of GenBank Accession #NM_003885, with an amino-terminal GST tag. The expressed GST-p25 is 444 amino acids long with a predicted MW of 50.3 kDa.
The CDK5/GST-p25 complex was generated by coexpression. Sf21 cells were cultured in TNM-FHS media at a density of 1.5×10^6 cells/mL and infected with each recombinant virus at MOI values of 5 (for CDK5) and 10 (for GST-p25). The cells were harvested 40 h after infection. For purification, the 100,000×g supernatant solution was used. Expression was confirmed by running samples on SDS-PAGE, followed by immunoblot analysis utilizing antibodies against CDK5 (anti-CDK5 (268-283); Calbiochem #219449) and p35 (Santa Cruz #sc820). The CDK5/GST-p25 complex was purified by glutathione affinity chromatography.
Compounds were tested for their ability to inhibit the kinase activity of recombinant baculoviral CDK5/GST-p25 using an enzyme-linked immunosorbent assay (ELISA) with time-resolved fluorescence (TRF) readout. Briefly, each 384-well FluoroNunc Maxisorp plate (Cat # 460372) plate was coated with 50 μl/well of 50 μg/ml substrate solution (recombinant GST-Rb(773-928)) in Tris-buffered saline (TBS). The CDK5/GST-p25 assay mixture (total volume=50 μl/well) consisting of 20 mM HEPES (pH 7.2), 10 μM ATP, 10 mM MgCl2, 5 mM EGTA, 25 mM β-glycerophosphate, 0.05% BSA, 2.5% DMSO, and various concentrations of test compound were then added to the assay plate. Enzyme (2 ng/ml CDK5/GST-p25) was added and the reaction was allowed to proceed at 37° C. for 20 minutes. Detection of the phosphorylated product was performed by adding 50 μl/well of phospho-Rb (Ser-780) antibody (Cell Signaling # 9307) diluted 1:10,000 in antibody dilution buffer (0.1% BSA in TBST). After 1-hour incubation at 37° C., 50 μl/well of Eu-Nl labelled anti-rabbit antibody (Wallac # AD0105; 1:50,000 in antibody dilution buffer) was added. Incubation at 37° C. then proceeded for 1 hour, followed by addition of 50 μl enhancement solution (Wallac #1244-105). The plate was gently agitated and after a few minutes, the fluorescence of the resulting solution was measured using a Multilabel Reader (Victor2 Model # 1420-018 or Envision Model # 2100). Inhibition data were analyzed using ActivityBase and IC50 curves were generated using XLFit 3.0.5.

T2 sequence (Q00535 whole entry): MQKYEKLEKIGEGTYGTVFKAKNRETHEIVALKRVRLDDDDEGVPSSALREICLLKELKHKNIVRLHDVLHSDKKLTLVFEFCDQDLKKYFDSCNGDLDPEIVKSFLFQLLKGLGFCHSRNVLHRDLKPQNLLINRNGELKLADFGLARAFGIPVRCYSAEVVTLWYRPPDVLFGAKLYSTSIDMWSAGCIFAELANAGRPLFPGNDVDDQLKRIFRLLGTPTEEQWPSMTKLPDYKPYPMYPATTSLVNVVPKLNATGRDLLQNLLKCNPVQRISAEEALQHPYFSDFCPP
T2 sequence (Q15078 108-307 partner limits assumed): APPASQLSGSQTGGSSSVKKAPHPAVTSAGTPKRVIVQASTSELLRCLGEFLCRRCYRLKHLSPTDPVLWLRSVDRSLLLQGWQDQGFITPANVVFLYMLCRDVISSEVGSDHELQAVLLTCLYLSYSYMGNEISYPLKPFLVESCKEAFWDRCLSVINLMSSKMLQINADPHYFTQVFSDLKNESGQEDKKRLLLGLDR
T1 sequence (P49841 2-419): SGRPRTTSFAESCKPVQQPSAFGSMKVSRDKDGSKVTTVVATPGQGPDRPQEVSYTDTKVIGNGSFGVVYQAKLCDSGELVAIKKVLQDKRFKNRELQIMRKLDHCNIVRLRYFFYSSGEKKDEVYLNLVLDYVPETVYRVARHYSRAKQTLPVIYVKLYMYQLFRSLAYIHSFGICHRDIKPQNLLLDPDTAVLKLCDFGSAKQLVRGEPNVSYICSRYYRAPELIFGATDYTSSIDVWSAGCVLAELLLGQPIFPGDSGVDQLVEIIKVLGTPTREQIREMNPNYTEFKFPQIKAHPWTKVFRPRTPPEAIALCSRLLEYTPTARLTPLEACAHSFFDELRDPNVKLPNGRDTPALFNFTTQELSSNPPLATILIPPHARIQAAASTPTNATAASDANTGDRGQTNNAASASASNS

As to `N#Cc1ccc2c(c1)C(c1nc(NCCc3ccccn3)nc3nn(C4CCCC4)cc13)C(=O)N2` (stereo not drawn) [Example 125, 3-[2-cyclopentyl-6-(2-pyridin-2-yl-ethylamino)-2H-pyrazolo [3,4-d]pyrimidin-4-yl]-2-oxo-2,3-dihydro-1H-indole-5-carbonitrile], the results for the pIC50 at His6-GSK-3β and against CDK5/GST-p25 were more than 6.52 and less than 5.00, respectively.

Consider `CNCCCNc1nc(C2C(=O)Nc3ccc(Br)cc32)c2cn(C)nc2n1` (stereo not drawn) [Example 306, 5-Bromo-3-[2-methyl-6-(3-methylamino-propylamino)-2H-pyrazolo [3,4-d]pyrimidin-4-yl]-1,3-dihydro-indol-2-one], for which the pIC50 (as a rule, the IC50 on a negative log10 scale, so that one unit is a factor of ten) is 5.52 to 6.52 at His6-GSK-3β and more than 6.52 against CDK5/GST-p25.

As for `CN(C)CCNc1nc(C2C(=O)Nc3ccc(Br)cc32)c2cn(C)nc2n1` (stereo not drawn) [Example 359, 5-Bromo-3-[6-(2-dimethylamino-ethylamino)-2-methyl-2H-pyrazolo[3,4-d]pyrimidin-4-yl]-1,3-dihydro-indol-2-one], the negative-log IC50 (pIC50) at His6-GSK-3β and at CDK5/GST-p25 was 5.52 to 6.52 in each case.

For `CCCn1cc2c(C3C(=O)Nc4ccc(Br)cc43)nc(NC[C@H](O)CO)nc2n1` (stereo partly drawn) [Example 364, 5-Bromo-3-[6-((S)-2,3-dihydroxy-propylamino)-2-propyl-2H-pyrazolo [3,4-d]pyrimidin-4-yl]-1,3-dihydro-indol-2-one], the pIC50 at His6-GSK-3β and on CDK5/GST-p25 was more than 6.52 in each case.

Consider `O=C1Nc2ccc([N+](=O)[O-])cc2C1c1ncnc2nn(C3CCCC3)cc12` (stereo not drawn) [Example 33, 3-(2-Cyclopentyl-2H-pyrazolo[3,4-d]pyrimidin-4-yl)-5-nitro-1,3-dihydro-indol-2-one], for which the negative logarithm of the IC50 (pIC50) at His6-GSK-3β and against CDK5/GST-p25 was more than 6.52 each time.

Consider `CCCn1cc2c(C3C(=O)Nc4ccc(C)cc43)nc(NCCN(C)C)nc2n1` (stereo not drawn) [Example 309, 3-[6-(2-Dimethylamino-ethylamino)-2-propyl-2H-pyrazolo[3,4-d]pyrimidin-4-yl]-5-methyl-1,3-dihydro-indol-2-one], for which the pIC50 on His6-GSK-3β and on CDK5/GST-p25 was 5.52 to 6.52 each time.

As for `CN(Cc1cccnc1)c1nc(C2C(=O)Nc3ccc(C#N)cc32)c2cn(C3CCCC3)nc2n1` (stereo not drawn) [Example 172, 3-[2-Cyclopentyl-6-(methyl-pyridin-3-ylmethyl-amino)-2H-pyrazolo [3,4-d]pyrimidin-4-yl]-2-oxo-2,3-dihydro-1H-indole-5-carbonitrile], the values for the pIC50 on His6-GSK-3β and against CDK5/GST-p25 were more than 6.52 and less than 5.00, respectively.

Take `COc1ccc2c(c1)C(c1ncnc3nn(C4CCCCC4)cc13)C(=O)N2` (stereo not drawn) [Example 52, 3-(2-Cyclohexyl-2H-pyrazolo[3,4-d]pyrimidin-4-yl)-5-methoxy-1,3-dihydro-indol-2-one]: the pIC50 on His6-GSK-3β and at CDK5/GST-p25 was 5.52 to 6.52 throughout.

With `N#Cc1ccc2c(c1)C(c1nc(Cl)nc3nn(C4CCCC4)cc13)C(=O)N2` (stereo not drawn) [Example 113, 3-(6-Chloro-2-cyclopentyl-2H-pyrazolo[3,4-d]pyrimidin-4-yl)-2-oxo-2,3-dihydro-1H-indole-5-carbonitrile], the pIC50 is more than 6.52 on His6-GSK-3β and less than 5.00 at CDK5/GST-p25.

As to `Cn1cc2c(C3C(=O)Nc4ccc(Br)cc43)nc(NCCc3cccnc3)nc2n1` (stereo not drawn) [Example 305, 5-Bromo-3-[2-methyl-6-(2-pyridin-3-yl-ethylamino)-2H-pyrazolo [3,4-d]pyrimidin-4-yl]-1,3-dihydro-indol-2-one], the pIC50 at His6-GSK-3β and on CDK5/GST-p25 was more than 6.52 each time.

Regarding `CN1CCN(c2nc3c(c(C4C(=O)Nc5ccc(C#N)cc54)n2)CCC3)CC1` (stereo not drawn) [Example 353, 3-[2-(4-Methyl-piperazin-1-yl)-6,7-dihydro-5H-cyclopentapyrimidin-4-yl]-2-oxo-2,3-dihydro-1H-indole-5-carbonitrile], the pIC50 was 5.52 to 6.52 on His6-GSK-3β and less than 5.00 against CDK5/GST-p25.

Consider `CCOCCNc1nc2c(c(C3C(=O)Nc4ccc(F)cc43)n1)CCC2` (stereo not drawn) [Example 319, 3-[2-(2-Ethoxy-ethylamino)-6,7-dihydro-5H-cyclopentapyrimidin-4-yl]-5-fluoro-1,3-dihydro-indol-2-one], for which the pIC50 on His6-GSK-3β and on CDK5/GST-p25 was less than 5.00 in each case.
